Results on 1 substance are retold here after patent US12171813B2, “Methods of and compositions for reducing gene expression and/or activity” (Christiana Care Gene Editing Institute, Inc., priority 2021, dated 2024).

The data set concerns EGFR. The data set is described as follows: cDNA PCR analysis of exon skipping / full-size transcript in EGFR. In kind it is cell-based, Human. Particulars: gRNA on its own; PDMR lung adenocarcinoma cells. As to the method:
After CRISPR reactions, total RNA was prepared, and cDNA synthesized for PCR amplification of the target region from EGFR. PCR-amplified DNA was then analyzed by electrophoresis through a 1% agarose gel for 75 minutes at 80v. DNA was stained with SYBR Safe. Lanes 1 and 13: NEB 2 Log Ladder; Lane 2: Scrambled gRNA; Lane 3: EGFR 21-22 SureKill gRNA 11 alone; Lane 4: EGFR 21-22 SureKill gRNA 13 alone; Lane 5: EGFR 21-22 SureKill gRNA 16 alone; Lane 6: EGFR 21-22 SureKill gRNA 17 alone; Lane 7: EGFR 21-22 SureKill gRNA 19 alone; Lane 8: EGFR 21-22 SureKill gRNA 22 alone; Lane 9: EGFR 21-22 SureKill gRNA 23 alone; Lane 10: EGFR 21-22 SureKill gRNA 27 alone; Lane 11: EGFR 21-22 SureKill gRNA 28 alone; Lane 12: EGFR 21-22 SureKill gRNA 29 alone. On the left side of the image are markers indicating DNA size in bp.
After CRISPR reactions, total RNA was prepared, and cDNA synthesized for semi-quantitative PCR amplification of the target region from EGFR. PCR amplification was performed for 25 cycles. PCR-amplified DNA was then analyzed by electrophoresis through a 1% agarose gel for 75 minutes at 80v. DNA was stained with SYBR Safe. […]
Transfections were carried out using the Lonza Nuclefector 4d. […] RNPs were complexed at 250:50 pmol for 30 minutes prior to transfection, during which time cells were harvested and counted. […]

On to “L858R gRNA: guide RNA TCAAGATCACAGATTTTGGG, SEQ ID NO:8, targets EGFR L858R mutation (listed as DNA, chemistry not given here)”, for which the “exon skipping (cDNA analysis)” value was “induced some level of exon skipping”.
